Measurements as given in US20120214862A1, “MODULATION OF FACTOR 7 EXPRESSION” (ISIS Pharmaceuticals, Inc., priority 2009, published 2012).
In the oligonucleotide strings, read from the 5' end, every base follows the letter of its sugar. An asterisk marks phosphorothioate; unmarked linkages are phosphodiester. Other units and linkages are bracketed, terminal groups are in braces. A string of capitals states the bases alone. e = 2'-O-(2-methoxyethyl) (MOE); [5mC] = 5-methylcytosine; d = 2'-deoxy (DNA)

System: human Factor 7 mRNA
Assay: Inhibition of human Factor 7 mRNA by 2-10-2 MOE shortmers in HepB3 cells, electroporation, 1,000 nM
Assay type: cell-based
Conditions: electroporation, 1,000 nM oligonucleotide, approximately 24 hours, relative to untreated control cells
How it was run: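 14-mer 2-10-2 2′-MOE gapmers, full phosphorothioate, 5-methylcytidines, electroporated at 1,000 nM into HepB3 cells (20,000/well). After ~24 h, mRNA quantified by real-time RT-PCR, normalized to RIBOGREEN total RNA; percent inhibition relative to untreated cells.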

Substance	% inhibition of human Factor 7 mRNA [%]
435842 (antisense eA*eT*dT*dT*d[5mC]*d[5mC]*d[5mC]*dA*dT*dT*dG*dG*e[5mC]*eA) [compound 435842]	0
435843 (antisense eG*e[5mC]*dT*dG*dG*dA*dG*d[5mC]*dT*dG*dA*dG*e[5mC]*e[5mC]) [compound 435843]	0
435844 (antisense eT*eG*dG*d[5mC]*d[5mC]*dA*dG*dT*dG*dG*d[5mC]*d[5mC]*eT*e[5mC]) [compound 435844]	30
435845 (antisense eG*e[5mC]*dT*d[5mC]*dA*dT*dG*dG*d[5mC]*dA*dG*dA*e[5mC]*eA) [compound 435845]	21
435846 (antisense eT*eG*dG*dA*dG*dA*dG*dA*d[5mC]*d[5mC]*dA*dA*eT*eG) [compound 435846]	7
435847 (antisense eT*eG*dG*dT*dG*dT*dG*d[5mC]*dA*d[5mC]*dA*d[5mC]*eA*eT) [compound 435847]	36
435848 (antisense eT*eG*dG*d[5mC]*d[5mC]*dA*d[5mC]*dT*dG*d[5mC]*d[5mC]*dT*e[5mC]*eA) [compound 435848]	32
435849 (antisense eT*eG*d[5mC]*d[5mC]*dG*dT*dA*dG*dT*dG*dG*d[5mC]*e[5mC]*eG) [compound 435849]	31
435850 (antisense e[5mC]*eT*dT*dG*dG*d[5mC]*d[5mC]*dA*dG*dT*dG*dT*eG*eG) [compound 435850]	15
435851 (antisense eA*e[5mC]*dA*dG*dG*d[5mC]*d[5mC]*dA*dG*dG*d[5mC]*dT*eG*eG) [compound 435851]	0
